# According to ChEMBL document CHEMBL1146108, “Discovery of novel and selective tertiary alcohol containing inhibitors of the norepinephrine transporter” (Bioorg Med Chem Lett, 2006):
# “And” between values parts separate entries of the source, which are not always exact repeats. Equal entries are not always repeated.
# Assays:
# [1] = molecular target: T1, Sodium-dependent noradrenaline transporter (Homo sapiens, UniProt P23975); experiment: Binding affinity to NET
# [2] = molecular target: Sodium-dependent serotonin transporter (Homo sapiens) (UniProt P31645); experiment: Displacement of [3H]5-HT from SERT at 100 nM
# [3] = molecular target: Sodium-dependent dopamine transporter (Homo sapiens) (UniProt Q01959); experiment: Displacement of […] from DAT at 1000 nM
# Liver microsomes [4] = experiment: Stability in rat liver microsome; format: ADME
# Canis familiaris = species on record: Canis familiaris; experiment: Stability in dog liver microsome; format: ADME, Canis lupus familiaris
# Rattus norvegicus [5] = experiment: Ability to block alpha-MMT-induced depletion of cortical norepinephrine concentration in orally dosed Sprague-Dawley rat; format: functional; conditions: po
# Rattus norvegicus [6] = experiment: Ability to block alpha-MMT-induced depletion of cortical norepinephrine concentration in Sprague-Dawley rat at 3 mg/kg, sc; format: functional; conditions: route subcutaneous
# Liver microsomes [7] = experiment: Stability in human liver microsome; format: ADME
# [8] = molecular target: T1, Sodium-dependent noradrenaline transporter; experiment: Binding affinity to NET at 100 nM
# Sodium-dependent serotonin transporter (Homo sapiens), sequence (P31645 whole entry, looked up): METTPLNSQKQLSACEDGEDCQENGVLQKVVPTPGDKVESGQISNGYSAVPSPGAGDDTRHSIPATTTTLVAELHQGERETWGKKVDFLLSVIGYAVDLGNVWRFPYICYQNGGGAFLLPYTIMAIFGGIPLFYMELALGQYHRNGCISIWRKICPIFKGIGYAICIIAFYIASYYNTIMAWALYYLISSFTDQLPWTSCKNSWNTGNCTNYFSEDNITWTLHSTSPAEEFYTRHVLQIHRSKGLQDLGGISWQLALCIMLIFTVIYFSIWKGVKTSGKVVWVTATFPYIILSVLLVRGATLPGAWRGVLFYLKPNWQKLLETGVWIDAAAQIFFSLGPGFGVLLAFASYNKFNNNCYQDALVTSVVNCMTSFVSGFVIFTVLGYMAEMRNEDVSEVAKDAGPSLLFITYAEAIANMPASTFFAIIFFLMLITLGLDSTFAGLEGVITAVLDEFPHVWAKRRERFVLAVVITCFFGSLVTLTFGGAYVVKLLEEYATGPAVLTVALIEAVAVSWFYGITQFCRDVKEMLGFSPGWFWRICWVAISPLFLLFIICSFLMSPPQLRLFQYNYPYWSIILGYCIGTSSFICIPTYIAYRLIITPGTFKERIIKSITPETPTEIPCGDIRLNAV
# Sodium-dependent dopamine transporter (Homo sapiens), sequence (Q01959 whole entry): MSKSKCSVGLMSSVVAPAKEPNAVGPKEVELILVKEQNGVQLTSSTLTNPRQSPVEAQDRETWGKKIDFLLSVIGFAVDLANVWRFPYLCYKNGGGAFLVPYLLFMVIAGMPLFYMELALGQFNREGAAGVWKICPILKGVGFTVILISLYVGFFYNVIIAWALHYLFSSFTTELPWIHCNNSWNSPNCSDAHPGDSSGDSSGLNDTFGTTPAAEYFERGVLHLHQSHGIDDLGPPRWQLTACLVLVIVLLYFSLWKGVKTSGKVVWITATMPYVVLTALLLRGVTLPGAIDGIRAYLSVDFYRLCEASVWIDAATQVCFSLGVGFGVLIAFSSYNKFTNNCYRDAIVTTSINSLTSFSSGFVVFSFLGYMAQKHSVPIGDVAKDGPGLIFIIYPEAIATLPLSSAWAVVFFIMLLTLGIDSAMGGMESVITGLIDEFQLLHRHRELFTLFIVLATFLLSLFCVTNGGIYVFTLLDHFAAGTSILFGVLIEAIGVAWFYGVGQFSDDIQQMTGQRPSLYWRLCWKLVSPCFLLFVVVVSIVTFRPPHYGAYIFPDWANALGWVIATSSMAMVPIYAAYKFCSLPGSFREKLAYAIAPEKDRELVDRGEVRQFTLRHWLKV
# T1 sequence (P23975 whole entry): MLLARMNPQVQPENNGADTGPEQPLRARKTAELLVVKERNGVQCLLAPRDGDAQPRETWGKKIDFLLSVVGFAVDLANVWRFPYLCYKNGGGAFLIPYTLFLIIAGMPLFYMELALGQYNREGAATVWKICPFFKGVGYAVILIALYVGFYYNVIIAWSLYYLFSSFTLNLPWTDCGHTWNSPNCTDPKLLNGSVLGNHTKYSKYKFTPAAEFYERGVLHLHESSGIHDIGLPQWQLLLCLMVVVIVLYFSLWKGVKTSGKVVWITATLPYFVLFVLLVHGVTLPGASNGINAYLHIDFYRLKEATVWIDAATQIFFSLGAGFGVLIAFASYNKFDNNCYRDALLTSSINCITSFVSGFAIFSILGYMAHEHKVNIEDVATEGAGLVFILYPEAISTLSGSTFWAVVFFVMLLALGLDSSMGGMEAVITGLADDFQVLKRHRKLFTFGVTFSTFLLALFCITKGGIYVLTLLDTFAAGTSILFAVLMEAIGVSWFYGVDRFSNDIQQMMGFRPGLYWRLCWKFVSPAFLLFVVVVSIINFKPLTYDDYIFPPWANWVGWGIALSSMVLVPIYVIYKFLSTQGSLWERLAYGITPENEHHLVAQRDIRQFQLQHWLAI
Structure (SMILES),Ki [1] [nM],inhibition [2],inhibition [3],other results
"COc1ccccc1C[C@@](O)(c1ccccc1)[C@@H]1CNCCO1 (single isomer, unassigned; isomer 2) [listing 1 of 2 here]",156,,,
COc1ccccc1C[C@@](O)(c1ccccc1)[C@@H]1CNCCO1 [listing 1 of 3 here],,5% and 5.5% and 1.4%,4.7% and 3.8% and 3.7%,
COc1ccccc1C[C@@](O)(c1ccccc1)[C@@H]1CNCCO1 [listing 2 of 3 here],161,,,
COc1ccccc1C[C@@](O)(c1ccccc1)[C@@H]1CNCCO1.Cl.Cl.Cl,3.2,,,Stability (Liver microsomes [4]): 0%; Stability (Canis familiaris): 60%; ED50 (Rattus norvegicus [5]): 18 mg/kg; Activity (Rattus norvegicus [6]): 70%; Stability (Liver microsomes [7]): 98%
CCOc1ccccc1C[C@@](O)(c1ccccc1)[C@@H]1CNCCO1,5.2,2.4%,3.8%,
CC(C)Oc1ccccc1C[C@@](O)(c1ccccc1)[C@@H]1CNCCO1,7.7,2.7%,5.1%,
COc1cccc(C[C@@](O)(c2ccccc2)[C@@H]2CNCCO2)c1,,2.8%,4.3%,inhibition [8]: 19.8%
O[C@](Cc1ccccc1)(c1ccccc1)[C@@H]1CNCCO1,148,4.2%,5.5%,
O[C@](Cc1ccccc1SC(F)(F)F)(c1ccccc1)[C@@H]1CNCCO1,54.4,14.8%,6.2%,
"O[C@](Cc1ccccc1-c1ccccc1)(c1ccccc1)[C@@H]1CNCCO1 (single isomer, unassigned)",3.7,3%,2.9%,
COc1ccccc1C[C@@](O)(c1ccccc1)[C@@H]1CNCCO1 [listing 3 of 3 here],56,,,
O[C@](Cc1ccccc1Cl)(c1ccccc1)[C@@H]1CNCCO1,30,4.6%,20.8%,
O[C@](Cc1ccccc1Br)(c1ccccc1)[C@@H]1CNCCO1,11.9,13%,24.1%,
"COc1ccccc1C[C@@](O)(c1ccccc1)[C@@H]1CNCCO1 (single isomer, unassigned; isomer 2) [listing 2 of 2 here]",,0.3%,4.6%,
COc1ccc(C[C@@](O)(c2ccccc2)[C@@H]2CNCCO2)cc1,,4.3%,6.2%,inhibition [8]: 25.2%
